From patent US4419508A, “20-Dihydro-20-deoxy-23-demycinosyltylosin and process for its production” (Eli Lilly and Company, priority 1981, dated 1983)
Values after ≈ are worked out from the molar mass of the structure shown. “Also recorded” adds a separate entry of the source. Like-named read-outs stand apart in the source and are kept apart here.

What was measured:
Escherichia coli EC14 = format: cell-based; conditions: free base, agar dilution
Text: (§1) Table 3 summarizes the minimal inhibitory concentrations (MIC), as measured by standard agar-dilution assays, at which DH-DO-DMT and DH-DO-OMT (as free bases) inhibit certain bacteria.

Shigella sonnei N9 = format: cell-based; conditions: free base, agar dilution
Text: as §1

Escherichia coli N10 = format: cell-based; conditions: free base, agar dilution
Text: as §1

[1] = test system: Klebsiella pneumoniae KAE; format: cell-based; conditions: free base, agar dilution
Text: as §1

[2] = test system: Staphylococcus aureus NRRL B313; format: cell-based; conditions: NRRLB313
[3] = test system: Staphylococcus aureus X400; format: cell-based
[4] = test system: Streptococcus sp. group D 9960; format: cell-based
Escherichia coli TEM = format: cell-based
[5] = test system: Staphylococcus epidermidis EPI1; format: cell-based
[6] = test system: pathogenic bacteria, especially gram-positive bacteria and Mycoplasma species; test: Antibacterial activity (in words); format: cell-based; conditions: qualitative statement
Text: as §1

[7] = test system: Haemophilus influenzae C.L.; format: cell-based
Solubility = format: physicochemical; conditions: for solubility in polar organic solvents: free bases, acetone, methanol, ethanol, chloroform, dimethylformamide, dimethyl sulfoxide; for solubility in water: free bases (rows) or acid addition salts (sets)
[8] = test system: Staphylococcus aureus V41; format: cell-based
[9] = test system: Staphylococcus epidermidis EPI2; format: cell-based; conditions: free base, agar dilution
[10] = test system: Streptococcus pyogenes C203; format: cell-based
[11] = test system: Klebsiella pneumoniae X26; format: cell-based
[12] = test system: Haemophilus influenzae 76; format: cell-based
[13] = test system: Streptococcus pneumoniae Park 1; format: cell-based
[14] = test system: Streptococcus faecium ATCC 9790; format: cell-based; conditions: Enterococcus faecium, ATCC9790
[15] = test system: Clostridium perfringens 81; test: microbe, parasite or virus in culture; format: cell-based; conditions: Clostridium perfringens, 81, 24 h
[16] = test system: Bacteroides vulgatis 1211; test: MIC against anaerobic bacteria, standard agar-dilution assay; format: cell-based; conditions: end point after 24 hours
[17] = test system: Fusobacterium symbiosum 1470; test: as above; format: cell-based; conditions: end point after 24 hours
[18] = test system: Streptococcus pneumoniae Park I; test: In vivo activity against experimental infections in mice; conditions: po
[19] = test system: Peptostreptococcus anaerobius 1428; test: MIC against anaerobic bacteria, standard agar-dilution assay; format: cell-based; conditions: end point after 24 hours
[20] = test system: Streptococcus pyogenes C203; test: In vivo activity against experimental infections in mice; conditions: free base, oral, two doses, bacterial challenge 64 LD50
[21] = test system: Bacteroides fragilis 1936B; test: MIC against anaerobic bacteria, standard agar-dilution assay; format: cell-based; conditions: end point after 24 hours
[22] = test system: Peptococcus asaccharolyticus 1302; test: as above; format: cell-based; conditions: Peptoniphilus asaccharolyticus, end point after 24 hours
[23] = test system: Eubacterium aerofaciens 1235; test: as above; format: cell-based; conditions: Collinsella aerofaciens, end point after 24 hours
[24] = test system: Staphylococcus aureus 3055; test: In vivo activity against experimental infections in mice; conditions: two doses
[25] = test system: Bacteroides melaninogenicus 2736; test: MIC against anaerobic bacteria, standard agar-dilution assay; format: cell-based; conditions: end point after 24 hours
[26] = test system: Bacteroides thetaiotaomicron 1438; test: as above; format: cell-based; conditions: Bacteroides thetaiotaomicron, 1438, 24 h
Description: (§2) Table 4 summarizes the MIC's at which DH-DO-OMT inhibits these bacteria. The MIC's were determined using a standard agar-dilution assay and reading the end point after 24 hours.

[27] = test system: Clostridium septicum 1128; test: as above; format: cell-based; conditions: end point after 24 hours
Description: as §2

Peptococcus prevoti 1281 = test: as above; format: cell-based; conditions: end point after 24 hours
Description: as §2

Chlamydia trachomatis = test: MIC, Chlamydia trachomatis grown in cell culture; format: cell-based
Text: (§3) In addition, DH-DO-OMT inhibits Mycoplasma species.

M. gallisepticum = test: MIC against Mycoplasma species; format: cell-based; conditions: Mycoplasmoides gallisepticum
Text: as §3

M. synoviae = test: MIC against Mycoplasma species; format: cell-based; conditions: Mycoplasmopsis synoviae
Text: as §3

[28] = test system: Propionibacterium acnes 79; test: MIC against anaerobic bacteria, standard agar-dilution assay; format: cell-based; conditions: Cutibacterium acnes, end point after 24 hours
[29] = test system: Bacteroides fragilis 1877; test: as above; format: cell-based; conditions: end point after 24 hours
[30] = test system: Bacteroides corrodens 1874; test: as above; format: cell-based; conditions: Eikenella corrodens, end point after 24 hours
Bacteroides fragilis 111 = test: as above; format: cell-based; conditions: end point after 24 hours
[31] = test system: Peptostreptococcus intermedius 1264; test: as above; format: cell-based; conditions: end point after 24 hours
[32] = test system: Bacteroides melaninogenicus 1856/28; test: as above; format: cell-based; conditions: end point after 24 hours
[33] = test system: Fusobacterium necrophorum 6054A; test: as above; format: cell-based; conditions: end point after 24 hours
[34] = test system: Clostridium difficile 2994; test: as above; format: cell-based; conditions: Clostridioides difficile, end point after 24 hours

## CCC1CC(C)C(=O)C=CC(C)=CC(CO)C(CC)OC(=O)CC(O)C(C)C1OC1OC(C)C(OC2CC(C)(O)C(O)C(C)O2)C(N(C)C)C1O (stereo not drawn) [DH-DO-DMT, 20-dihydro-20-deoxy-23-demycinosyltylosin]
Escherichia coli EC14
  MIC: > 128 µg/mL
Shigella sonnei N9
  MIC: > 128 µg/mL
Escherichia coli N10
  MIC: > 128 µg/mL
[1]
  MIC: > 128 µg/mL
[2]; Staphylococcus aureus
  MIC: 128 µg/mL (≈ 176 µM)
[3]; Staphylococcus aureus, X400
  MIC: > 128 µg/mL
[4]; Streptococcus
  MIC: > 128 µg/mL
Escherichia coli TEM; Escherichia coli
  MIC: > 128 µg/mL
[5]
  MIC: 128 µg/mL (≈ 176 µM)
[6]
  antibacterial activity: inhibit the growth of pathogenic bacteria, especially gram-positive bacteria and Mycoplasma species; also recorded: some antibacterial activity; also recorded: active against gram-positive microorganisms and Mycoplasma species
[7]; Haemophilus influenzae
  MIC: > 128 µg/mL
Solubility
  solubility in polar organic solvents: soluble in water and in most polar organic solvents
  solubility in water: soluble in water
[8]; Staphylococcus aureus, V41
  MIC: 128 µg/mL (≈ 176 µM)
[9]
  MIC: 64 µg/mL (≈ 87.9 µM)
[10]; Streptococcus pyogenes, C203
  MIC: > 128 µg/mL
[11]; Klebsiella pneumoniae, X26
  MIC: > 128 µg/mL
[12]; Haemophilus influenzae, 76
  MIC: > 128 µg/mL
[13]; PARK1
  MIC: > 128 µg/mL
[14]
  MIC: > 128 µg/mL

## CCC1CC(C)C(=O)C=CC(C)=CC(CO)C(CC)OC(=O)CC(O)C(C)C1OC1OC(C)C(O)C(N(C)C)C1O (stereo not drawn) [DH-DO-OMT, 20-Dihydro-20-deoxy-5-O-mycaminosyltylonolide]
Escherichia coli EC14
  MIC: > 128 µg/mL
Shigella sonnei N9
  MIC: > 128 µg/mL
Escherichia coli N10
  MIC: > 128 µg/mL
[1]
  MIC: > 128 µg/mL
[2]; free base, agar dilution, Staphylococcus aureus NRRL B313, read-out: MIC
  MIC: 4 µg/mL (≈ 6.85 µM)
[15]
  MIC: 2 µg/mL (≈ 3.43 µM)
[16]
  MIC: > 8 µg/mL
[17]
  MIC: > 8 µg/mL
[3]; free base, agar dilution, Staphylococcus aureus X400, read-out: MIC
  MIC: 8 µg/mL (≈ 13.7 µM)
[18]
  ED50: 224 mg/kg
[4]; free base, agar dilution, Streptococcus sp. group D 9960, read-out: MIC
  MIC: 16 µg/mL (≈ 27.4 µM)
Escherichia coli TEM; free base, agar dilution, Escherichia coli TEM, read-out: MIC
  MIC: 64 µg/mL (≈ 110 µM)
[19]
  MIC: > 8 µg/mL
[5]; read-out: MIC
  MIC: 8 µg/mL (≈ 13.7 µM)
[20]
  ED50: 75.3 mg/kg
[6]
  antibacterial activity: inhibit the growth of pathogenic bacteria, especially gram-positive bacteria and Mycoplasma species; also recorded: active against gram-positive microorganisms and Mycoplasma species
[21]
  MIC: > 8 µg/mL
[22]
  MIC: > 8 µg/mL
[7]; free base, agar dilution, Haemophilus influenzae C.L., read-out: MIC
  MIC: 16 µg/mL (≈ 27.4 µM)
Solubility
  solubility in polar organic solvents: soluble in water and in most polar organic solvents
  solubility in water: soluble in water
[23]
  MIC: 2 µg/mL (≈ 3.43 µM)
[24]; Staphylococcus aureus, 3055, free base, oral, bacterial challenge 100 LD50
  ED50: 44 mg/kg
[24]; Staphylococcus aureus, 3055, sc, free base, subcutaneous, bacterial challenge 221 LD50
  ED50: 37.3 mg/kg
[25]
  MIC: > 8 µg/mL
[26]
  MIC: > 8 µg/mL
[27]
  MIC: 2 µg/mL (≈ 3.43 µM)
Peptococcus prevoti 1281
  MIC: > 8 µg/mL
Chlamydia trachomatis
  MIC: 0.5 µg/mL (≈ 0.857 µM)
[8]; free base, agar dilution, Staphylococcus aureus V41, read-out: MIC
  MIC: 4 µg/mL (≈ 6.85 µM)
M. gallisepticum
  MIC: 12.5 µg/mL (≈ 21.4 µM)
M. synoviae
  MIC: 12.5 µg/mL (≈ 21.4 µM)
[28]
  MIC: 2 µg/mL (≈ 3.43 µM)
[9]
  MIC: 8 µg/mL (≈ 13.7 µM)
[10]; free base, agar dilution, Streptococcus pyogenes C203, read-out: MIC
  MIC: 8 µg/mL (≈ 13.7 µM)
[29]
  MIC: > 8 µg/mL
[11]; free base, agar dilution, Klebsiella pneumoniae X26, read-out: MIC
  MIC: 4 µg/mL (≈ 6.85 µM)
[30]
  MIC: > 8 µg/mL
[12]; free base, agar dilution, Haemophilus influenzae 76, read-out: MIC
  MIC: 16 µg/mL (≈ 27.4 µM)
Bacteroides fragilis 111
  MIC: > 8 µg/mL
[13]; PARK1, read-out: MIC
  MIC: 8 µg/mL (≈ 13.7 µM)
[31]
  MIC: > 8 µg/mL
[32]
  MIC: > 8 µg/mL
[33]
  MIC: 8 µg/mL (≈ 13.7 µM)
[34]
  MIC: 2 µg/mL (≈ 3.43 µM)
[14]; free base, agar dilution, Streptococcus faecium ATCC 9790, read-out: MIC
  MIC: 16 µg/mL (≈ 27.4 µM)
